This note sets out measurements from US4925664A, “Spider toxins and methods for their use as blockers of calcium channels and amino acid receptor function” (priority 1986, dated 1990).

The assay concerns transmission between the cochlear nerve afferents and the cochlear nucleus neurons. Nature of the assay: Blockade of synaptic transmission in chick cochlear nucleus, in vitro chick brain stem preparation (field potential). It is filed as cell-based. The following applies: conventional EAA receptor antagonists and agonists. As for the experimental part: The toxin was bath-applied to cochlear nucleus neurons in an in vitro preparation of chick brain stem.
In order to test the effects of the spider venom, late embryos or hatchling chickens were used in all experiments. Brain stems were removed and maintained in vitro using methods known and described in the art, except that the temperature in the recording chamber was held at 32° C. The tissue was superfused in avian Tyrode solution at about 1 ml per minute.
The field potential evoked by direct electrical stimulation of the cochlear nerve was recorded with a 4M potassium acetate electrode. The short latency component of the field potential reflects the compound action […] of cochlear nerve axons. This afferent volley is followed by a negativity representing the postsynaptic response of NM neurons.
Consider `O=C(O)[C@H]1CCCN[C@H]1C(=O)O` (relative stereo) [cis-2,3-piperidine dicarboxylic acid], for which the “concentration required to completely suppress transmission” value was “millimolar range”.
The value for `N[C@H](CCC(=O)NCC(=O)O)C(=O)O` [-D-glutamylglycine] was “millimolar range”; that for `N[C@@H](Cn1oc(=O)[nH]c1=O)C(=O)O` [quisqualate] was “millimolar concentrations”.
